We go through 19 compounds from PubChem BioAssay AID206 (DTP/NCI, 2004).

Where “and” joins values, the source holds several entries; their conditions need not be identical. Equal values may be shown once. Records with an inconclusive call do not appear. Residues, ends and D or L forms follow the SMILES beside them. *: point of attachment. Trt = c1ccc(C(c2ccccc2)(c2ccccc2)*)cc1; Cbz = O=C(OCc1ccccc1)*

The experiment concerns nude mice, HT29 intrarenal xenograft, tumor weight T/C. In words: NCI In Vivo Anticancer Drug Screen. Data for tumor model HT29;CX-1 Human Adenocarcinoma (MER+) (intrarenal inoculation) in NU/NU Swiss (nude) mice. The settings on record: endpoint: mean tumor weight change, higher = larger tumour. An outline of the steps:
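Readout: treated/vehicle-control ratio of the measured endpoint (tumor size or survival) in transplanted-tumor mice.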

With `O=C(C#Cc1ccccc1)c1ccccc1`, the T/C is 71 % of control (dose: 12.5 mg/kg/injection, schedule: Q04DX004 (sc), vehicle: Klucel (hydroxypropylcellulose) (HPC)); 64 % of control (dose: 25.0 mg/kg/injection, schedule: Q04DX004 (sc), vehicle: Klucel (hydroxypropylcellulose) (HPC)); 88 % of control (dose: 50.0 mg/kg/injection, schedule: Q04DX004 (sc), vehicle: Klucel (hydroxypropylcellulose) (HPC)); 76 % of control (dose: 100.0 mg/kg/injection, schedule: Q04DX004 (sc), vehicle: Klucel (hydroxypropylcellulose) (HPC)).

With `C=C1C(=O)C2=CC1CCC(=O)C1(C)CCC(OC(C)=O)C(C)(C)C1CC2O` (stereo not given), the T/C was 91 % of control (dose: 60.0 mg/kg/injection, schedule: Q04DX004 (sc), vehicle: Klucel (hydroxypropylcellulose) (HPC)) and 116 % of control (dose: 120.0 mg/kg/injection, schedule: Q04DX004 (sc), vehicle: Klucel (hydroxypropylcellulose) (HPC)).

On to `Cc1ccc2nc(-c3ccc4nc(-c5ccc(N=Nc6ccc(-c7nc8ccc(-c9nc%10ccc(C)c(S(=O)(=O)O)c%10s9)cc8s7)cc6)cc5)sc4c3)sc2c1S(=O)(=O)O`, for which the T/C is 190 % of control (dose: 200.0 mg/kg/injection, schedule: Q04DX004 (sc), vehicle: suspension in saline); 109 % of control (dose: 400.0 mg/kg/injection, schedule: Q04DX004 (sc), vehicle: suspension in saline); 221 % of control (dose: 800.0 mg/kg/injection, schedule: Q04DX004 (sc), vehicle: suspension in saline); 50 % of control (dose: 1600.0 mg/kg/injection, schedule: Q04DX004 (sc), vehicle: suspension in saline).

`CCCCCCCCCCCCCCCCCCCCCC(=O)Nc1ccn(C2OC(CO)C(O)C2O)c(=O)n1` (stereo not given): the T/C is, setting by setting: (dose: 225.0 mg/kg/injection, schedule: Q04DX004 (sc), vehicle: saline with Tween-80) 65 % of control; (dose: 450.0 mg/kg/injection, schedule: Q04DX004 (sc), vehicle: saline with Tween-80) 88 % of control; (dose: 900.0 mg/kg/injection, schedule: Q04DX004 (sc), vehicle: saline with Tween-80) 64 % of control; (dose: 1800.0 mg/kg/injection, schedule: Q04DX004 (sc), vehicle: saline with Tween-80) 72 % of control.

Turning to `CC(=O)C1(O)Cc2c(O)c3c(c(O)c2C(OC2CC(N)C(O)C(C)O2)C1)C(=O)c1ccccc1C3=O` (stereo not given), the T/C (dose: 1.0 mg/kg/injection, schedule: Q04DX004 (sc), vehicle: water) is 67 % of control.

Take `COC1=C(C)C(=O)C2=C(C1=O)C1C3CC4=C(C(=O)C(OC)=C(C)C4=O)C(CNC(=O)C(C)=O)N3C(C#N)C(C2)N1C` (stereo not given): the T/C is 99 % of control (dose: 1.0 mg/kg/injection, schedule: Q04DX004 (sc), vehicle: Klucel (hydroxypropylcellulose) (HPC)) and 75 % of control (dose: 2.0 mg/kg/injection, schedule: Q04DX004 (sc), vehicle: Klucel (hydroxypropylcellulose) (HPC)).

For `CO[C@H]1C[C@@H]2CC[C@@H](C)[C@@](O)(O2)C(=O)C(=O)N2CCCC[C@H]2C(=O)O[C@H]([C@H](C)C[C@@H]2CC[C@@H](O)[C@H](OC)C2)CC(=O)[C@H](C)C=C(C)[C@@H](O)[C@@H](OC)C(=O)[C@H](C)C[C@H](C)/C=C/C=C/C=C1C`, under “dose: 50.0 mg/kg/injection, schedule: Q01DX010 (sc), vehicle: saline with Tween-80”, the T/C was 28 % of control.

Consider `C1CN2CN3CCN(CN1C3)C2`, for which the T/C is 93 % of control (dose: 100.0 mg/kg/injection, schedule: Q01DX010 (sc), vehicle: saline) and 95 % of control (dose: 200.0 mg/kg/injection, schedule: Q01DX010 (sc), vehicle: saline).

For the compound `COc1cccc2c1C(=N)c1c(O)c3c(c(O)c1C2=O)C[C@@](O)(C(C)=O)C[C@@H]3OC1CC(N)C(O)C(C)O1` (stereo not given in full), the T/C is 102 % of control (dose: 10.0 mg/kg/injection, schedule: Q04DX004 (sc), vehicle: water) and 53 % of control (dose: 40.0 mg/kg/injection, schedule: Q04DX004 (sc), vehicle: water).

Take `N=[N+]=CC(=O)OCC(N)C(=O)O` (stereo not given): the T/C by setting is: (dose: 3.13 mg/kg/injection, schedule: Q01DX010 (sc), vehicle: saline) 212 % of control; (dose: 6.25 mg/kg/injection, schedule: Q01DX010 (sc), vehicle: saline) 87 % of control; (dose: 12.5 mg/kg/injection, schedule: Q01DX010 (sc), vehicle: saline) 85 % of control; (dose: 25.0 mg/kg/injection, schedule: Q01DX010 (sc), vehicle: saline) 123 % of control.

`Cc1cn(C2CC(O)C(CO)O2)c(=O)[nH]c1=O` (stereo not given): the T/C was 113 % of control (dose: 400.0 mg/kg/injection, schedule: Q04DX004 (sc), vehicle: saline); 94 % of control (dose: 800.0 mg/kg/injection, schedule: Q04DX004 (sc), vehicle: saline); 102 % of control (dose: 1600.0 mg/kg/injection, schedule: Q04DX004 (sc), vehicle: saline); 81 % of control (dose: 3200.0 mg/kg/injection, schedule: Q04DX004 (sc), vehicle: saline).

As to `COC(=O)C(CSC(c1ccccc1)(c1ccccc1)c1ccccc1)NC(=O)C(CC(N)=O)NC(=O)OCc1ccccc1` (stereo not drawn) (Cbz-Asn-Cys(Trt)-OMe; configuration not given here), the T/C (dose: 150.0 mg/kg/injection, schedule: Q04DX004 (sc), vehicle: distilled water + Tween-80) is 63 % of control; the T/C (dose: 300.0 mg/kg/injection, schedule: Q04DX004 (sc), vehicle: distilled water + Tween-80) was 69 % of control; the T/C (dose: 600.0 mg/kg/injection, schedule: Q04DX004 (sc), vehicle: distilled water + Tween-80) was 81 % of control; the T/C (dose: 1200.0 mg/kg/injection, schedule: Q04DX004 (sc), vehicle: distilled water + Tween-80) was 83 % of control.

Consider `Nc1ccn(C2OC(CO)C(O)C2O)c(=O)n1` (stereo not given), for which the T/C runs as follows: (dose: 15.63 mg/kg/injection, schedule: Q01DX010 (sc), vehicle: water) 100 % of control; (dose: 31.25 mg/kg/injection, schedule: Q01DX010 (sc), vehicle: water) 102 % of control; (dose: 500.0 mg/kg/injection, schedule: Q04DX004 (sc), vehicle: saline) 62 % of control; (dose: 600.0 mg/kg/injection, schedule: Q04DX004 (sc), vehicle: saline) 77 % of control; (dose: 1000.0 mg/kg/injection, schedule: Q04DX004 (sc), vehicle: saline) 19 % of control.

For the compound `C1=CCOCOC1`, the T/C is 69 % of control (dose: 37.5 mg/kg/injection, schedule: Q04DX004 (sc), vehicle: saline with Tween-80); 70 % of control (dose: 75.0 mg/kg/injection, schedule: Q04DX004 (sc), vehicle: saline with Tween-80); 68 % of control (dose: 150.0 mg/kg/injection, schedule: Q04DX004 (sc), vehicle: saline with Tween-80); 72 % of control (dose: 300.0 mg/kg/injection, schedule: Q04DX004 (sc), vehicle: saline with Tween-80).

For `O=NN(CCCl)C(=O)NCCCl`, the T/C reads like this: (dose: 2.0 mg/kg/injection, schedule: Q01DX010 (sc), vehicle: saline) 80 % of control; (dose: 4.0 mg/kg/injection, schedule: Q01DX010 (sc), vehicle: saline) 66 % of control; (dose: 8.0 mg/kg/injection, schedule: Q01DX010 (sc), vehicle: saline) 61 % of control and 70 % of control; (dose: 15.0 mg/kg/injection, schedule: Q04DX004 (sc), vehicle: suspension in saline) 100 % of control; (dose: 30.0 mg/kg/injection, schedule: Q04DX004 (sc), vehicle: suspension in saline) 69 % of control; (dose: 60.0 mg/kg/injection, schedule: Q04DX004 (sc), vehicle: suspension in saline) 41 % of control.

Consider `O=C(O)c1cc(Cc2ccc(O)c(C(=O)O)c2)ccc1O` (tested in a mixture with another compound), for which the T/C reads like this: (dose: 300.0 mg/kg/injection, schedule: Q04DX004 (sc), vehicle: Klucel (hydroxypropylcellulose) (HPC)) 62 % of control; (dose: 600.0 mg/kg/injection, schedule: Q04DX004 (sc), vehicle: Klucel (hydroxypropylcellulose) (HPC)) 57 % of control; (dose: 1200.0 mg/kg/injection, schedule: Q04DX004 (sc), vehicle: Klucel (hydroxypropylcellulose) (HPC)) 114 % of control; (dose: 2400.0 mg/kg/injection, schedule: Q04DX004 (sc), vehicle: Klucel (hydroxypropylcellulose) (HPC)) 104 % of control.

Regarding `[Cl][Mn][Cl]`, the T/C was 182 % of control (dose: 18.75 mg/kg/injection, schedule: Q04DX004 (sc), vehicle: saline); 171 % of control (dose: 75.0 mg/kg/injection, schedule: Q04DX004 (sc), vehicle: saline); 121 % of control (dose: 150.0 mg/kg/injection, schedule: Q04DX004 (sc), vehicle: saline).

As to `O=c1[nH]c(=O)n(C2CC(O)C(CO)O2)cc1F` (stereo not given), the T/C runs as follows: (dose: 25.0 mg/kg/injection, schedule: Q01DX010 (sc), vehicle: water) 65 % of control; (dose: 50.0 mg/kg/injection, schedule: Q01DX010 (sc), vehicle: water) 75 % of control.

Regarding `COc1cccc(C2NC(=O)c3c(n[nH]c3N)S2)c1O` (stereo not given), the T/C reads like this: (dose: 1200.0 mg/kg/injection, schedule: Q04DX004 (sc), vehicle: saline with Tween-80) 53 % of control; (dose: 2400.0 mg/kg/injection, schedule: Q04DX004 (sc), vehicle: saline with Tween-80) 117 % of control.
